# Results taken from PubChem BioAssay (NCI).
#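 Where inhibition never reached the appropriate level, the endpoint shown equals the highest concentration tested. Otherwise, values were interpolated linearly from a five-concentration, 48-hour dose response in 96-well plates. Here, GI50 denotes the concentration required for 50% inhibition of growth. TGI denotes the concentration required for complete inhibition of growth.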
# Assays:
# Test in all cases: NCI tumour cell line growth inhibition, 48 h
# [1] = tested on: 786-0 renal
# [2] = tested on: A498 renal
# [3] = tested on: A549 NSCLC
# [4] = tested on: ACHN renal
# [5] = tested on: BT-549 breast
# [6] = tested on: CAKI-1 renal
# [7] = tested on: CCRF-CEM leukemia
# [8] = tested on: COLO 205 colon
# [9] = tested on: DU-145 prostate
# [10] = tested on: EKVX NSCLC
# [11] = tested on: HCC-2998 colon
# [12] = tested on: HCT-116 colon
# [13] = tested on: HCT-15 colon
# [14] = tested on: HL-60(TB) leukemia
# [15] = tested on: HOP-62 NSCLC
# [16] = tested on: HOP-92 NSCLC
# [17] = tested on: HS 578T breast
# [18] = tested on: HT29 colon
# [19] = tested on: IGROV1 ovarian
# [20] = tested on: K-562 leukemia
# [21] = tested on: KM12 colon
# [22] = tested on: LOX IMVI melanoma
# [23] = tested on: M14 melanoma
# [24] = tested on: MALME-3M melanoma
# [25] = tested on: MDA-MB-231 breast
# [26] = tested on: MDA-MB-435
# [27] = tested on: MOLT-4 leukemia
# [28] = tested on: NCI-H226 lung
# [29] = tested on: NCI-H23 lung
# [30] = tested on: NCI-H460 lung
# [31] = tested on: NCI-H522 lung
# [32] = tested on: NCI/ADR-RES ovarian
# [33] = tested on: OVCAR-3 ovarian
# [34] = tested on: OVCAR-4 ovarian
# [35] = tested on: OVCAR-5 ovarian
# [36] = tested on: OVCAR-8 ovarian
# [37] = tested on: PC-3 prostate
# [38] = tested on: RPMI-8226 leukemia
# [39] = tested on: RXF 393 renal
# [40] = tested on: SF-268 CNS
# [41] = tested on: SF-295 CNS
# [42] = tested on: SF-539 CNS
# [43] = tested on: SK-MEL-2 melanoma
# [44] = tested on: SK-MEL-28 melanoma
# [45] = tested on: SK-MEL-5 melanoma
# [46] = tested on: SK-OV-3 ovarian
# [47] = tested on: SN12C renal
# [48] = tested on: SNB-19 CNS
# [49] = tested on: SNB-75 CNS
# [50] = tested on: SR leukemia
# [51] = tested on: SW-620 colon
# [52] = tested on: T-47D breast
# [53] = tested on: TK-10 renal
# [54] = tested on: U251 CNS
# [55] = tested on: UACC-257 melanoma
# [56] = tested on: UACC-62 melanoma
# [57] = tested on: UO-31 renal
# [58] = tested on: MCF7 breast
structure (smiles),measurement,setting,value
Cn1c(/C=C(\C#N)c2cccc(C(F)(F)F)c2)nc2c(N3CCOCC3)nc(Cl)nc21,GI50,[1],1.43 µM
same,TGI,[1],2.82 µM
same,GI50,[2],1.38 µM
same,TGI,[2],2.72 µM
same,GI50,[3],1.31 µM
same,TGI,[3],3.3 µM
same,GI50,[4],0.444 µM
same,TGI,[4],1.57 µM
same,GI50,[5],0.569 µM
same,TGI,[5],1.96 µM
same,GI50,[6],0.656 µM
same,TGI,[6],1.97 µM
same,GI50,[7],0.23 µM
same,TGI,[7],0.75 µM
same,GI50,[8],1.12 µM
same,TGI,[8],2.67 µM
same,GI50,[9],1.22 µM
same,TGI,[9],2.48 µM
same,GI50,[10],1.21 µM
same,TGI,[10],2.73 µM
same,GI50,[11],1.67 µM
same,TGI,[11],3.2 µM
same,GI50,[12],0.178 µM
same,TGI,[12],0.398 µM
same,GI50,[13],0.221 µM
same,TGI,[13],0.61 µM
same,GI50,[14],0.486 µM
same,TGI,[14],2.54 µM
same,GI50,[15],1.45 µM
same,TGI,[15],3.2 µM
same,GI50,[16],0.342 µM
same,TGI,[16],1.89 µM
same,GI50,[17],1.26 µM
same,TGI,[17],4.38 µM
same,GI50,[18],0.369 µM
same,TGI,[18],1.38 µM
same,GI50,[19],0.556 µM
same,TGI,[19],1.89 µM
same,GI50,[20],0.344 µM
same,TGI,[20],4.03 µM
same,GI50,[21],1.82 µM
same,TGI,[21],3.58 µM
same,GI50,[22],0.321 µM
same,TGI,[22],1.36 µM
same,GI50,[23],0.733 µM
same,TGI,[23],2.08 µM
same,GI50,[24],1.39 µM
same,TGI,[24],2.79 µM
same,GI50,[25],1.05 µM
same,TGI,[25],2.3 µM
same,GI50,[26],1.02 µM
same,TGI,[26],2.43 µM
same,GI50,[27],0.381 µM
same,TGI,[27],1.55 µM
same,GI50,[28],1.36 µM
same,TGI,[28],3.18 µM
same,GI50,[29],1.49 µM
same,TGI,[29],3.18 µM
same,GI50,[30],1.67 µM
same,TGI,[30],3.61 µM
same,GI50,[31],0.657 µM
same,TGI,[31],2.32 µM
same,GI50,[32],1.72 µM
same,TGI,[32],6.72 µM
same,GI50,[33],0.665 µM
same,TGI,[33],1.87 µM
same,GI50,[34],1 µM
same,TGI,[34],2.41 µM
same,GI50,[35],1.32 µM
same,TGI,[35],2.87 µM
same,GI50,[36],0.567 µM
same,TGI,[36],2.16 µM
same,GI50,[37],0.726 µM
same,TGI,[37],2.5 µM
same,GI50,[38],0.252 µM
same,TGI,[38],0.802 µM
same,GI50,[39],0.613 µM
same,TGI,[39],1.93 µM
same,GI50,[40],1.51 µM
same,TGI,[40],3.25 µM
same,GI50,[41],1.83 µM
same,TGI,[41],3.93 µM
same,GI50,[42],1.25 µM
same,TGI,[42],2.52 µM
same,GI50,[43],1.47 µM
same,TGI,[43],2.96 µM
same,GI50,[44],1.48 µM
same,TGI,[44],2.86 µM
same,GI50,[45],1.6 µM
same,TGI,[45],2.97 µM
same,GI50,[46],3.7 µM
same,TGI,[46],14.5 µM
same,GI50,[47],0.829 µM
same,TGI,[47],2.14 µM
same,GI50,[48],1.44 µM
same,TGI,[48],2.8 µM
same,GI50,[49],0.159 µM
same,TGI,[49],1.15 µM
same,GI50,[50],0.337 µM
same,TGI,[50],1.86 µM
same,GI50,[51],0.377 µM
same,TGI,[51],1.4 µM
same,GI50,[52],0.846 µM
same,TGI,[52],3.25 µM
same,GI50,[53],1.72 µM
same,TGI,[53],3.14 µM
same,GI50,[54],1.32 µM
same,TGI,[54],2.73 µM
same,GI50,[55],1.37 µM
same,TGI,[55],2.89 µM
same,GI50,[56],0.973 µM
same,TGI,[56],2.28 µM
same,GI50,[57],0.422 µM
same,TGI,[57],1.84 µM
CC(C)(C)NCCC(O)c1cc2c(Cl)cc(Cl)cc2c2cc(C(F)(F)F)ccc12 (centres undefined),GI50,[9],1.97 µM
same,TGI,[9],3.5 µM
Cc1cc(Nc2ccc(F)cc2)nc(N2CCN(c3ccnc4cc(Cl)ccc34)CC2)n1,GI50,[3],3.75 µM
same,TGI,[3],> 100 µM
same,GI50,[4],2.84 µM
same,TGI,[4],> 100 µM
same,GI50,[7],2.99 µM
same,TGI,[7],> 100 µM
same,GI50,[8],1.8 µM
same,TGI,[8],4.39 µM
same,GI50,[11],4.05 µM
same,TGI,[11],> 100 µM
same,GI50,[12],2.15 µM
same,TGI,[12],> 100 µM
same,GI50,[13],2.27 µM
same,TGI,[13],> 100 µM
same,GI50,[15],4.06 µM
same,TGI,[15],> 100 µM
same,GI50,[18],2.96 µM
same,TGI,[18],> 100 µM
same,GI50,[20],2.49 µM
same,TGI,[20],> 100 µM
same,GI50,[21],2.78 µM
same,TGI,[21],75 µM
same,GI50,[22],2.94 µM
same,TGI,[22],> 100 µM
same,GI50,[58],2.69 µM
same,TGI,[58],> 100 µM
same,GI50,[28],4.75 µM
same,TGI,[28],> 100 µM
same,GI50,[30],2.95 µM
same,TGI,[30],> 100 µM
same,GI50,[32],2.88 µM
same,TGI,[32],> 100 µM
same,GI50,[37],1.79 µM
same,TGI,[37],> 100 µM
same,GI50,[38],2.25 µM
same,TGI,[38],> 100 µM
same,GI50,[51],3.44 µM
same,TGI,[51],> 100 µM
